Test results from patent US11866430B2, “Naphthyridinone compounds useful as T cell activators” (priority 2018, dated 2024).
pIC50: −log10 of the molar value. Like-named read-outs stand apart in the source and are kept apart here.

What was measured:
human DGKα [1] = biological target: T1, human DGKα (Homo sapiens (Human), UniProt P23743); assay: DGKα LIPGLO assay (extruded liposome substrate); format: biochemical
How it was run: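 Human full-length DGKα, His-tagged and produced in Sf9 cells, assayed at 20 nM (4× stock) on extruded liposomes of PS, 0.25 mM DAG and 2.75 mM PC, preincubated 10 min. Reaction started with 300 μM ATP (stock) and ran 1 h in MOPS pH 7.5/MgCl2/CaCl2/DTT buffer.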

human DGKζ [2] = biological target: T2, human DGKζ (Homo sapiens (Human), UniProt Q13574); assay: DGKζ LIPGLO assay (extruded liposome substrate); format: biochemical
How it was run: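 Recombinant DGKζ (Sf9-expressed, Ni/SEC/SP-purified) preincubated 10 min with extruded 100 nm PC/DAG/PS liposomes in 50 mM MOPS pH 7.5, 100 mM NaCl, 10 mM MgCl2, 1 μM CaCl2, 1 mM DTT. Started with 300 uM ATP solution (stock, pre-addition); 1 hr reaction. ADP-Glo luminescence; IC50 from 11 concentrations.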

human DGKα [3] = biological target: T1, human DGKα; assay: biochemical
How it was run: (§1)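 Full-length human DGKζ (and DGKα), C-terminal His-tagged, Sf9-expressed, with phosphatidylserine/DAG micelles in 50 mM octyl glucoside; buffer 50 mM MOPS pH 7.5, 100 mM NaCl, 10 mM MgCl2, 1 μM CaCl2, 1 mM DTT.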

human DGKζ [4] = biological target: T2, human DGKζ; assay: DGKζ assay (detergent/lipid micelle substrate); format: biochemical
How it was run: as §1

[5] = tested on: pre-activated CD4 T cells and Raji cells; assay: Raji CD4 T Cell IL2 Assay; format: cell-based
[6] = extruded liposome substrate, read-out: DGKζ LIPGLO IC50
[7] = detergent/lipid micelle substrate, read-out: DGKα IC50
[8] = detergent/lipid micelle substrate, read-out: DGKζ IC50
[9] = DGKζ LIPGLO IC50, extruded liposome substrate
[10] = DGKζ IC50, detergent/lipid micelle substrate

T1 sequence (P23743 other isoform, or with tags, fused parts or gaps): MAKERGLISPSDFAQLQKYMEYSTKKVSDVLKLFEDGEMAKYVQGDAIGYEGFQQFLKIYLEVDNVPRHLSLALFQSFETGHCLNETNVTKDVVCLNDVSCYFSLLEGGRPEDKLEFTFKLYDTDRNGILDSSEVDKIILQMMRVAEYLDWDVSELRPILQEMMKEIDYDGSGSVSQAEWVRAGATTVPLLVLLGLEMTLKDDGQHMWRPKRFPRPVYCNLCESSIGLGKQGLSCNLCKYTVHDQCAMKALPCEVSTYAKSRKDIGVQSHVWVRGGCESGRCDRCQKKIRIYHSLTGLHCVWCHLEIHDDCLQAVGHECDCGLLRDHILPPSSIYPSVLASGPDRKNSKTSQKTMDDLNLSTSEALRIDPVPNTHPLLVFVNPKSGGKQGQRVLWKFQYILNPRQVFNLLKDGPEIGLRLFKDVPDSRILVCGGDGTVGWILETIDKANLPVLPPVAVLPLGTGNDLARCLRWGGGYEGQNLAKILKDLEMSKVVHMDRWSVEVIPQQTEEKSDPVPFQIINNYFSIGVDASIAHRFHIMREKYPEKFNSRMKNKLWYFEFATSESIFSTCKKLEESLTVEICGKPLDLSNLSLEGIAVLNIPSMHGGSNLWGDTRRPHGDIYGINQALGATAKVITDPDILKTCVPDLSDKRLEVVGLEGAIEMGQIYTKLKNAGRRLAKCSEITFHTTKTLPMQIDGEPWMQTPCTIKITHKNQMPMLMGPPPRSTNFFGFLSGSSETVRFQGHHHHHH
T2 sequence (Q13574 other isoform, or with tags, fused parts or gaps): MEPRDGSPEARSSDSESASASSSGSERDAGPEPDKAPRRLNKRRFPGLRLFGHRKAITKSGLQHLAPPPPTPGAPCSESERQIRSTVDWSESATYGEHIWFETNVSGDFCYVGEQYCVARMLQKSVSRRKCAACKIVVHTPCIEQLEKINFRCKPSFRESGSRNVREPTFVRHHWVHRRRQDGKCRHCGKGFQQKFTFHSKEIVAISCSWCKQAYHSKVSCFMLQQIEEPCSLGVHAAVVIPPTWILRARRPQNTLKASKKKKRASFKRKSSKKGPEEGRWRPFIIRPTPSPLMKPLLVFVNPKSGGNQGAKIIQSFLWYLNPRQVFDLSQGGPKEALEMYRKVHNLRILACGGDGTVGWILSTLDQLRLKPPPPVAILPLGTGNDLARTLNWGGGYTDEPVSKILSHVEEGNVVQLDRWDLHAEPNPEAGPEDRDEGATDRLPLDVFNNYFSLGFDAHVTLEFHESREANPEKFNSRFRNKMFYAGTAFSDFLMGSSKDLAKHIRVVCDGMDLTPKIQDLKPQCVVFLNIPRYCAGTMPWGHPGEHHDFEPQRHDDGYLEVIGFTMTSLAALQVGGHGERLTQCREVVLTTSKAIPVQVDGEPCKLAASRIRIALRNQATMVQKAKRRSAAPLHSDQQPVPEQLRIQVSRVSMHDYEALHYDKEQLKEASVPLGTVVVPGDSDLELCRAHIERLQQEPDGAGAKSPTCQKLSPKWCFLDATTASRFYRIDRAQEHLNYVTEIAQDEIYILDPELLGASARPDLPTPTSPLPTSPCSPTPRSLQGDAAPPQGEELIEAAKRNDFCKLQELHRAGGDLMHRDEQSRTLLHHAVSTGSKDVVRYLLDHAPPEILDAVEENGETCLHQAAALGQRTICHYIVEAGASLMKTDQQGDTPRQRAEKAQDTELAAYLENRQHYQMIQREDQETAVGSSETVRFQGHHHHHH

SMILES | pIC50 (human DGKα [1]) | pIC50 (human DGKζ [2]; [6]) | pIC50 (human DGKα [3]; [7]) | pIC50 (human DGKζ [4]; [8]) | pIC50 ([5]; Homo sapiens, Raji) | pIC50 [5] | pIC50 (human DGKζ [2]; [9]) | pIC50 (human DGKζ [4]; [10]) | pIC50 (human DGKα [3]; DGKα IC50, detergent/lipid micelle substrate)
Cc1ccc2c(n1)c(N1CCN(Cc3cc(Br)ccc3O)CC1)c(C#N)c(=O)n2C [Example 277, 4-{4-[(5-bromo-2-hydroxyphenyl)methyl]piperazin-1-yl}-1,6-dimethyl-2-oxo-1,2-dihydro-1,5-naphthyridine-3-carbonitrile] | 5.77 | 4.89 | 6.12 | 4.35 | 7.10 | – | – | – | –
Cn1c(=O)c(C#N)c(N2CCN(Cc3cccc(F)c3O)CC2)c2nc(Br)ccc21 [Example 304, 6-bromo-4-{4-[(3-fluoro-2-hydroxyphenyl)methyl]piperazin-1-yl}-1-methyl-2-oxo-1,2-dihydro-1,5-naphthyridine-3-carbonitrile] | 6.21 | 5.24 | 6.48 | 4.17 | 6.72 | – | – | – | –
Cc1cccc(Cl)c1CN1CCN(c2c(C#N)c(=O)n(C)c3ccc(Cl)nc23)CC1 [Example 419, 6-chloro-4-{4-[(2-chloro-6-methylphenyl)methyl]piperazin-1-yl}-1-methyl-2-oxo-1,2-dihydro-1,5-naphthyridine-3-carbonitrile] | 4.31 | 4.82 | 4.09 | < 4.09 | 6.54 | – | – | – | –
COc1ccccc1C(c1ccc(F)cc1)N1CCN(c2c(C#N)c(=O)n(C)c3ccc(Br)nc23)CC1 (single isomer, unassigned) [Example 14, 6-bromo-4-{4-[(4-fluorophenyl)(2-methoxyphenyl)methyl]piperazin-1-yl}-1-methyl-2-oxo-1,2-dihydro-1,5-naphthyridine-3-carbonitrile] | 5.33 | 5.49 | 5.92 | < 3.62 | – | 7.59 | – | – | –
Cn1c(=O)c(C#N)c(N2CCN(C(c3ccc(F)cc3)C3CC3)CC2)c2nc(Br)ccc21 (stereo not shown) [Example 35, 6-bromo-4-{4-[cyclopropyl(4-fluorophenyl)methyl]piperazin-1-yl}-1-methyl-2-oxo-1,2-dihydro-1,5-naphthyridine-3-carbonitrile] | 6.00 | 4.09 | 6.85 | < 3.62 | 6.68 | – | – | – | –
Cn1c(=O)c(C#N)c(N2CCN(Cc3ccc(F)cc3Cl)CC2)c2nc(Cl)ccc21 [Example 287, 6-chloro-4-{4-[(2-chloro-4-fluorophenyl)methyl]piperazin-1-yl}-1-methyl-2-oxo-1,2-dihydro-1,5-naphthyridine-3-carbonitrile] | 4.74 | 4.54 | 5.68 | < 3.62 | 7.00 | – | – | – | –
Cn1c(=O)c([N+](=O)[O-])c(N2CCN(C(c3ccccc3)c3ccccc3)CC2)c2nc(C#N)ccc21 [Example 223, 8-(4-benzhydrylpiperazin-1-yl)-5-methyl-7-nitro-6-oxo-5,6-dihydro-1,5-naphthyridine-2-carbonitrile] | 5.00 | 6.21 | 5.72 | 5.49 | 7.38 | – | – | – | –
Cn1c(=O)c(C#N)c(N2CCN(Cc3ccc(Cl)c(O)c3)CC2)c2nc(C#N)ccc21 [Example 332, 8-{4-[(4-chloro-3-hydroxyphenyl)methyl]piperazin-1-yl}-5-methyl-6-oxo-5,6-dihydro-1,5-naphthyridine-2,7-dicarbonitrile] | 5.60 | 5.19 | 5.96 | 4.17 | 6.28 | – | – | – | –
COc1cc(F)ccc1C(c1ccc(F)cc1)N1CCN(c2c([N+](=O)[O-])c(=O)n(C)c3ccc(C#N)nc23)CC1 (single isomer, unassigned) [Example 125, 8-(4-((4-fluoro-2-methoxyphenyl)(4-fluorophenyl)methyl)piperazin-1-yl)-5-methyl-7-nitro-6-oxo-5,6-dihydro-1,5-naphthyridine-2-carbonitrile] | 4.96 | – | 5.37 | – | 7.64 | – | 5.64 | 5.10 | –
C=CCOc1cc(F)ccc1C(C)N1CCN(c2c(C#N)c(=O)n(C)c3ccc(Cl)nc23)CC1 (stereo not shown) [Example 195, 4-(4-(1-(2-(allyloxy)-4-fluorophenyl)ethyl)piperazin-1-yl)-6-chloro-1-methyl-2-oxo-1,2-dihydro-1,5-naphthyridine-3-carbonitrile] | 5.77 | 4.01 | 6.66 | < 3.62 | 6.92 | – | – | – | –
CCC(c1ccc(F)cc1)N1CCN(c2c([N+](=O)[O-])c(=O)n(C)c3ccc(C#N)nc23)CC1 (single isomer, unassigned) [Example 34, 8-{4-[1-(4-fluorophenyl)propyl]piperazin-1-yl}-5-methyl-7-nitro-6-oxo-5,6-dihydro-1,5-naphthyridine-2-carbonitrile] | 6.54 | – | 6.74 | – | – | 7.46 | 5.47 | 4.64 | –
Cn1c(=O)c(C#N)c(N2CCN(Cc3cc(C#N)ccc3F)CC2)c2nc(Cl)ccc21 [Example 340, 6-chloro-4-{4-[(5-cyano-2-fluoro-phenyl)methyl]piperazin-1-yl}-1-methyl-2-oxo-1,2-dihydro-1,5-naphthyridine-3-carbonitrile] | 5.47 | 4.77 | 5.38 | < 3.62 | 6.16 | – | – | – | –
Cn1c(=O)c(C#N)c(N2CCN(Cc3ccccc3Cl)CC2)c2nc(Br)ccc21 [Example 300, 6-bromo-4-{4-[(2-chlorophenyl)methyl]piperazin-1-yl}-1-methyl-2-oxo-1,2-dihydro-1,5-naphthyridine-3-carbonitrile] | 4.62 | 4.01 | 5.70 | < 3.62 | 6.80 | – | – | – | –
Cn1c(=O)c(C#N)c(N2CCN(Cc3ccc(C(C)(C)C)cc3O)CC2)c2nc(Cl)ccc21 [Example 261, 4-{4-[(4-tert-butyl-2-hydroxyphenyl)methyl]piperazin-1-yl}-6-chloro-1-methyl-2-oxo-1,2-dihydro-1,5-naphthyridine-3-carbonitrile] | 6.15 | 5.00 | 6.37 | < 3.62 | 7.68 | – | – | – | –
C#CCn1c(=O)c([N+](=O)[O-])c(N2CCN(C(CC)c3ccc(F)cc3)CC2)c2nc(C#N)ccc21 (single isomer, unassigned) [Example 140, 8-{4-[1-(4-fluorophenyl)propyl]piperazin-1-yl}-7-nitro-6-oxo-5-(prop-2-yn-1-yl)-5,6-dihydro-1,5-naphthyridine-2-carbonitrile] | 5.57 | 6.89 | 6.19 | 6.22 | 8.22 | – | – | – | –
Cn1c(=O)c(C#N)c(N2CCN(Cc3ccc(O)c(F)c3)CC2)c2nc(Cl)ccc21 [Example 357, 6-chloro-4-{4-[(3-fluoro-4-hydroxyphenyl)methyl]piperazin-1-yl}-1-methyl-2-oxo-1,2-dihydro-1,5-naphthyridine-3-carbonitrile] | 7.07 | 4.33 | 7.55 | < 3.62 | 5.30 | – | – | – | –
Cc1ccc2c(n1)c(N1CCN(C(c3ccc(F)cc3)c3ccc(F)cc3)CC1)c(C#N)c(=O)n2C [Example 226, 4-(4-(bis(4-fluorophenyl)methyl)piperazin-1-yl)-1,6-dimethyl-2-oxo-1,2-dihydro-1,5-naphthyridine-3-carbonitrile] | 5.41 | 5.00 | 5.80 | 4.15 | 7.08 | – | – | – | –
Cn1c(=O)c([N+](=O)[O-])c(N2CCN(C(c3ccc(F)cc3)C3CC3)CC2)c2nc(C#N)ccc21 (single isomer, unassigned) [Example 51, 8-(4-(cyclopropyl(4-fluorophenyl)methyl)piperazin-1-yl)-5-methyl-7-nitro-6-oxo-5,6-dihydro-1,5-naphthyridine-2-carbonitrile] | 6.48 | 5.33 | – | 4.25 | – | 8.28 | – | – | 6.74
Cn1c(=O)c(C#N)c(N2CCN(C(c3ccccc3)c3ccccc3)CC2)c2ncccc21 [Example 196, 4-(4-benzhydrylpiperazin-1-yl)-1-methyl-2-oxo-1,2-dihydro-1,5-naphthyridine-3-carbonitrile] | 5.57 | 4.37 | 5.40 | < 3.62 | 5.68 | – | – | – | –
Cc1cccc(OCc2cncc(C#N)c2)c1C(c1ccc(F)cc1)N1CCN(c2c([N+](=O)[O-])c(=O)n(C)c3ccc(Br)nc23)CC1 (single isomer, unassigned) [Example 90, 5-((2-((4-(6-bromo-1-methyl-3-nitro-2-oxo-1,2-dihydro-1,5-naphthyridin-4-yl)piperazin-1-yl)(4-fluorophenyl)methyl)-3-methylphenoxy)methyl)nicotinonitrile] | < 3.62 | 4.82 | 4.09 | 3.72 | – | 6.20 | – | – | –
